# Starred links: 1 amine or outer side, 2 acyl side, 3 side chain; linkers in the order of their positions; H or OH if unused. Non-standard residues stand in square brackets, D forms with d. Residues, ends and D or L forms follow the SMILES beside them. *: point of attachment. FITC = O=C1OC2(c3ccc(O)cc3Oc3cc(O)ccc32)c2ccc(NC(=S)*)cc21; DOTA = O=C(O)CN1CCN(CC(=O)O)CCN(CC(=O)*)CCN(CC(=O)O)CC1; X2 = O=C(O)CCC(NC(=O)NC(CCCCN*)C(=O)O)C(=O)O; 2Nal = N[CH](Cc1ccc2ccccc2c1)C(=O)O; X1 = O=C(C1CCC(CN[*:1])CC1)[*:2]
# What was measured:
# PSMA = target: T1, PSMA (Homo sapiens, UniProt Q04609); assay: Competitive cell binding assay (radioligand 68Ga-PSMA-10); conditions: free ligands, mean ± SD, n = 3; for Ki: Ki=IC50/(1+cradioligand/Kd); for IC50: radioligand 68Ga-PSMA-10, 0.75 nmol/L
# T1 construct: LNCaP cells (CRL-1740; ATCC; PSMA-positive); host or cells: LNCaP cells
# T1 sequence (Q04609 whole entry): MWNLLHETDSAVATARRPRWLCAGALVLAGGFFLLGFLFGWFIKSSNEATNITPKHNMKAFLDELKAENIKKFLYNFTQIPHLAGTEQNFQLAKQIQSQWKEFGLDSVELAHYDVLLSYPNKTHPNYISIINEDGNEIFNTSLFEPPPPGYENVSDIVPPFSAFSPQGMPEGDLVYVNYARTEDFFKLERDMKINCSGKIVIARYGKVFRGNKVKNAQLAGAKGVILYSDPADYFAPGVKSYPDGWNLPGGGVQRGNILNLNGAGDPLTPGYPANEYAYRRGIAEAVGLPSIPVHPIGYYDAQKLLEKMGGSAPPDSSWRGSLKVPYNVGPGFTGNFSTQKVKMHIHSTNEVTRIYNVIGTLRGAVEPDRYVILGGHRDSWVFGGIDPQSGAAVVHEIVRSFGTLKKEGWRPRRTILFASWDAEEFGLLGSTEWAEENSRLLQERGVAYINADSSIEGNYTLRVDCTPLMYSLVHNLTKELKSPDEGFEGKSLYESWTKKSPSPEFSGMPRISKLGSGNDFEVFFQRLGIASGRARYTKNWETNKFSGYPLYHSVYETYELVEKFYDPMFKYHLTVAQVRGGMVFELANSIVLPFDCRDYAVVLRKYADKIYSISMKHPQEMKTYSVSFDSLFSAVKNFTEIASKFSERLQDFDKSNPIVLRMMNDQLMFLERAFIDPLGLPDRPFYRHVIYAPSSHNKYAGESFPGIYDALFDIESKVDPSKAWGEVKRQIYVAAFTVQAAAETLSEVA
# Method: (§1) LNCaP cells (CRL-1740; ATCC; PSMA-positive) and PC-3 cells (CRL-1435; ATCC; PSMA-negative) were cultured in RPMI medium (Thermo Fisher Scientific, Waltham, MA, USA) supplemented with 10% fetal calf serum and 2 mmol/L L-glutamine (all from (Thermo Fisher Scientific, Waltham, MA, USA) ) at 37 °C in humidified air with 5% CO2. Cells were harvested using trypsin-ethylenediaminetetraacetic acid (trypsin-EDTA; 0.25% trypsin, 0.02% EDTA, Invitrogen, Waltham, MA, USA). Cell line authentication was regularly performed. Binding affinities and internalization profiles of the ^68Ga-labeled compounds were determined in competitive cell binding assays and internalization experiments as described previously.
# LNCaP cells = assay: Specific cell surface binding and internalization of 68Ga-labeled compounds; type: cell-based; conditions: 68Ga-labeled compounds; blockage with 500 µmol/L 2-PMPA; mean ± SD, n = 3
# Method: as §1
# [1] = Lipophilicity, logD at pH 7.4 in n-octanol/PBS; type: physicochemical; conditions: 68Ga-labeled ligand
# Method: The synthesis was performed according to previously published protocols. Details on synthesis and analytical data of the compounds are provided in the Supplementary Materials (Compound Synthesis and Analytical Characterization). […] Using 30% NaOH (Sigma-Aldrich, Darmstadt, Germany) and 10% NaOH (Sigma-Aldrich, Darmstadt, Germany), the pH was adjusted to 3.8. The reaction mixture was incubated at 98 °C for 5–10 min. The radiochemical yield was analyzed by reversed-phase high-performance liquid chromatography (RP-HPLC) or reversed-phase thin-layer chromatography (RP-TLC, 60 RP-18 F254S, Sigma-Aldrich, Darmstadt, Germany) with 0.5 M ammonium acetate/methanol (1:1) as the mobile phase. The lipophilicity of the ^68Ga-labeled compounds was determined using the 2-phase system n-octanol and PBS.
# [2] = system: LNCaP-tumor bearing BALB/c nu/nu mice; conditions: compared with PSMA-927; cited from earlier work
Compound,Ki (PSMA),IC50 (PSMA),Specifically Cell Surface Bound (LNCaP cells),Specifically Internalized (LNCaP cells),Lipophilicity logDpH 7.4 n-octanol/PBS [1],tumor enhancement after dye conjugation [2]
"O=C(O)CCC(NC(=O)NC(CCCCNC(=O)C(Cc1ccc2ccccc2c1)NC(=O)C1CCC(CNC(=O)C(CCCCNC(=S)Nc2ccc3c(c2)C(=O)OC32c3ccc(O)cc3Oc3cc(O)ccc32)NC(=O)CN2CCN(CC(=O)O)CCN(CC(=O)O)CCN(CC(=O)O)CC2)CC1)C(=O)O)C(=O)O (stereo not drawn) [PSMA-921, Glu-urea-Lys-2-Nal-Chx-Lys(Fluorescein)-DOTA]",4.03 ± 0.95 nM,4.83 ± 0.93 nM,7.06 ± 3.32 %AR/10^5 Cells,15.82 ± 6.18 %AR/10^5 Cells,-2.36 ± 0.03,
"O=C(O)CCC(NC(=O)NC(CCCCNC(=O)C(Cc1ccc2ccccc2c1)NC(=O)C1CCC(CNC(=O)C(CCCCNC(=S)Nc2ccc3c(c2)C(=O)OC32c3ccc(O)cc3Oc3cc(O)ccc32)NC(=O)C(CCC(=O)O)NC(=O)CN2CCN(CC(=O)O)CCN(CC(=O)O)CCN(CC(=O)O)CC2)CC1)C(=O)O)C(=O)O (stereo not drawn) [PSMA-922, Glu-urea-Lys-2-Nal-Chx-Lys(Fluorescein)-E1-DOTA]",5.78 ± 1.32 nM,6.93 ± 1.29 nM,6.33 ± 1.53 %AR/10^5 Cells,13.74 ± 5.75 %AR/10^5 Cells,-2.07 ± 0.06,
"O=C(O)CCC(NC(=O)NC(CCCCNC(=O)C(Cc1ccc2ccccc2c1)NC(=O)C1CCC(CNC(=O)C(CCCCNC(=S)Nc2ccc3c(c2)C(=O)OC32c3ccc(O)cc3Oc3cc(O)ccc32)NC(=O)C(CCC(=O)O)NC(=O)C(CCC(=O)O)NC(=O)CN2CCN(CC(=O)O)CCN(CC(=O)O)CCN(CC(=O)O)CC2)CC1)C(=O)O)C(=O)O (stereo not drawn) [PSMA-923, Glu-urea-Lys-2-Nal-Chx-Lys(Fluorescein)-E2-DOTA] ({DOTA}-EEK(FITC)[X1][2Nal]-X2; configuration not given here)",5.95 ± 1.99 nM,7.14 ± 1.95 nM,9.82 ± 0.67 %AR/10^5 Cells,21.55 ± 9.24 %AR/10^5 Cells,-2.16 ± 0.04,
"O=C(O)CCC(NC(=O)NC(CCCCNC(=O)C(Cc1ccc2ccccc2c1)NC(=O)C1CCC(CNC(=O)C(CCCCNC(=O)CN2CCN(CC(=O)O)CCN(CC(=O)O)CCN(CC(=O)O)CC2)NC(=S)Nc2ccc3c(c2)C(=O)OC32c3ccc(O)cc3Oc3cc(O)ccc32)CC1)C(=O)O)C(=O)O (stereo not drawn) [PSMA-924, Glu-urea-Lys-2-Nal-Chx-Lys(DOTA)-Fluorescein]",3.87 ± 1.76 nM,4.64 ± 1.23 nM,1.11 ± 0.81 %AR/10^5 Cells,1.11 ± 0.94 %AR/10^5 Cells,-2.38 ± 0.07,
"O=C(O)CCC(NC(=O)NC(CCCCNC(=O)C(Cc1ccc2ccccc2c1)NC(=O)C1CCC(CNC(=O)C(CCCCNC(=O)CN2CCN(CC(=O)O)CCN(CC(=O)O)CCN(CC(=O)O)CC2)NC(=O)C(CCC(=O)O)NC(=S)Nc2ccc3c(c2)C(=O)OC32c3ccc(O)cc3Oc3cc(O)ccc32)CC1)C(=O)O)C(=O)O (stereo not drawn) [PSMA-925, Glu-urea-Lys-2-Nal-Chx-Lys(DOTA)-E1- Fluorescein]",6.77 ± 3.66 nM,8.12 ± 3.59 nM,2.67 ± 0.95 %AR/10^5 Cells,3.03 ± 2.17 %AR/10^5 Cells,-2.05 ± 0.02,
"O=C(O)CCC(NC(=O)NC(CCCCNC(=O)C(Cc1ccc2ccccc2c1)NC(=O)C1CCC(CNC(=O)C(CCCCNC(=O)CN2CCN(CC(=O)O)CCN(CC(=O)O)CCN(CC(=O)O)CC2)NC(=O)C(CCC(=O)O)NC(=O)C(CCC(=O)O)NC(=S)Nc2ccc3c(c2)C(=O)OC32c3ccc(O)cc3Oc3cc(O)ccc32)CC1)C(=O)O)C(=O)O (stereo not drawn) [PSMA-926, Glu-urea-Lys-2-Nal-Chx-Lys(DOTA)-E2-Fluorescein] ({FITC}-EEK(DOTA)[X1][2Nal]-X2; configuration not given here)",7.16 ± 2.63 nM,8.59 ± 2.57 nM,10.12 ± 4.85 %AR/10^5 Cells,11.86 ± 5.31 %AR/10^5 Cells,-2.13 ± 0.03,
[^68Ga]Ga-Glu-urea-Lys-(HE)3-HBED-CC-IRDye800CW,,,,,,significantly higher tumor enhancement
[^68Ga]Ga-Glu-urea-Lys-HBED-CC-IRDye800CW,,,,,,significantly higher tumor enhancement

# Source: article PMC8954540, “A New Class of PSMA-617-Based Hybrid Molecules for Preoperative Imaging and Intraoperative Fluorescence Navigation of Prostate Cancer” (Pharmaceuticals, 2022)
